Values quoted from earlier work as cited in US20050064031A1, “Combination contraceptive, kits that contain the latter, and a method that uses the latter” (priority 1995, published 2005).

System: breast tumors
Conditions: rats treated before the administration of a carcinogen

SMILES: CN(C)c1ccc([C@H]2C[C@]3(C)[C@@H](CC[C@]3(O)CCCO)[C@@H]3CCC4=CC(=O)CCC4=C32)cc1 [onapristone]
- development of breast tumors: can be inhibited
